These results are taken from patent US20050143427A1, “[B]-fused bicyclic proline derivatives and their use for treating arthritic conditions” (priority 2003, published 2005).

For data set [1], the target named is alpha-2-delta receptor 1 (A2DR1) (Homo sapiens, UniProt P54289). Nature of the data set: [3H]Gabapentin A2DR1 binding assay (filter, Biological Method 4). Particulars: displacement of [3H]-gabapentin. The source says: (§1) HEK 293 recombinant cells expressing A2DR1 or A2DR2 protein are harvested and washed in phosphate buffered saline (“PBS”). The cells are centrifuged and resuspended in tris(hydroxymethyl)aminomethane-ethylenediaminetetraacetic acid (“Tris-EDTA” or “TE”) buffer containing Roche Complete Protease Inhibitor Cocktail. The cells are homogenized, centrifuged at 3000×g, and the supernatant centrifuged again at 50,000×g. The resulting pellet is resuspended and homogenized in TE. Following determination of A2DR1 or A2DR2 protein concentration, aliquots are stored at −70° C. until the day of testing (membrane preparation may be used for at least 6 months).
alpha-2-delta receptor 1 (A2DR1), sequence (P54289 25-1103): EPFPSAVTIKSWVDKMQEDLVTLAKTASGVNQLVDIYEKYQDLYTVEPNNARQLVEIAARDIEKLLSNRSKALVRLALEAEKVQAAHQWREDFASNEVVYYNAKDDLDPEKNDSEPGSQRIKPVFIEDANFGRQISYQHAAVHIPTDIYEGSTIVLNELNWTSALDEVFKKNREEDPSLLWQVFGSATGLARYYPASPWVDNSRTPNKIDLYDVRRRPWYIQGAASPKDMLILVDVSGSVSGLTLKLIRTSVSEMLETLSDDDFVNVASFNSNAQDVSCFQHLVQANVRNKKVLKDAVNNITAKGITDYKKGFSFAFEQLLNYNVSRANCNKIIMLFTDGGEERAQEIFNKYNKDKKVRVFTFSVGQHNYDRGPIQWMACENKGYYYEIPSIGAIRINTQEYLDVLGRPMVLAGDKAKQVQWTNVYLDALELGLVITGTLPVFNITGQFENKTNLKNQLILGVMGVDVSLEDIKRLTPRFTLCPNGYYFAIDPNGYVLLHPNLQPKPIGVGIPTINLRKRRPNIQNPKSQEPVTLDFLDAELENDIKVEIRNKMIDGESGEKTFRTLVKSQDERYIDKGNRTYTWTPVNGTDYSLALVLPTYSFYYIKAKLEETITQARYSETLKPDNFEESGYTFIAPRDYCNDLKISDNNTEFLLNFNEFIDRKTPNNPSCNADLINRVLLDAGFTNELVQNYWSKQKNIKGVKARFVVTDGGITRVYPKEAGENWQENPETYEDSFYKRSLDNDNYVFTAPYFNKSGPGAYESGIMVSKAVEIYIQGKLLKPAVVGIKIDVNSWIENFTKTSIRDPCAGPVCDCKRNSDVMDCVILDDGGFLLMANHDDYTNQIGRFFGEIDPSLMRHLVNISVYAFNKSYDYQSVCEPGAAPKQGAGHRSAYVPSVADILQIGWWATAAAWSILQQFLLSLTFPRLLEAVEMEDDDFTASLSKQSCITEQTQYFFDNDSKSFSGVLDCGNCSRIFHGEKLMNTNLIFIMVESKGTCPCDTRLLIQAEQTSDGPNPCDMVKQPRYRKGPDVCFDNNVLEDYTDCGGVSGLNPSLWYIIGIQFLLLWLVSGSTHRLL
(§2) In one version, the binding assay is set up in a 96-well format using deep-well polypropylene plates. In a total volume of 500 μL, the following additions are made: 250 μL buffer [[…] N-2-hydroxyethylpiperazine-N′-2-ethanesulfonic acid (“HEPES”), pH 7.4], 25 μL [3H]gabapentin (10 nM final concentration), 200 μL thawed tissue membrane preparation from Step (1) (˜40 μg protein), and 25 μL of test compound at 7 test dilutions (for example, 0.001, 0.01, 0.03, 0.1, 0.3, 1.0, and 10 μM concentrations). Non-specific binding for each plate is determined by the addition of 10 μM of pregabalin instead of test compound in a few of the 96 wells. Following incubation for 45 minutes at 21° C., the contents of the wells are filtered under vacuum onto glass filter/B (“GF/B”) filter mats and then washed 4×1 mL with chilled 50 mM tris(hydroxymethyl)aminomethane (“Tris”) HCl, pH 6.9. The mats are placed into plastic pouches, scintillation cocktail is added, the pouches are sealed, and radioactivity for each sample is counted.
(§3) Specific binding values for each concentration are transformed and then analyzed by a 4-parameter nonlinear regression equation provided by Prism graphics software by Graph Pad to determine IC50 values by conventional means.
(In general: In a radioligand displacement assay an active substance lowers the binding of a labelled ligand.)

The target of data set [2] is T1, alpha-2-delta receptor 2 (A2DR2) (Homo sapiens, UniProt Q9NY47).
T1 construct: expressed in transfected cells; host or cells: HEK 293 (membrane preparation)
T1 sequence (Q9NY47 19-1150): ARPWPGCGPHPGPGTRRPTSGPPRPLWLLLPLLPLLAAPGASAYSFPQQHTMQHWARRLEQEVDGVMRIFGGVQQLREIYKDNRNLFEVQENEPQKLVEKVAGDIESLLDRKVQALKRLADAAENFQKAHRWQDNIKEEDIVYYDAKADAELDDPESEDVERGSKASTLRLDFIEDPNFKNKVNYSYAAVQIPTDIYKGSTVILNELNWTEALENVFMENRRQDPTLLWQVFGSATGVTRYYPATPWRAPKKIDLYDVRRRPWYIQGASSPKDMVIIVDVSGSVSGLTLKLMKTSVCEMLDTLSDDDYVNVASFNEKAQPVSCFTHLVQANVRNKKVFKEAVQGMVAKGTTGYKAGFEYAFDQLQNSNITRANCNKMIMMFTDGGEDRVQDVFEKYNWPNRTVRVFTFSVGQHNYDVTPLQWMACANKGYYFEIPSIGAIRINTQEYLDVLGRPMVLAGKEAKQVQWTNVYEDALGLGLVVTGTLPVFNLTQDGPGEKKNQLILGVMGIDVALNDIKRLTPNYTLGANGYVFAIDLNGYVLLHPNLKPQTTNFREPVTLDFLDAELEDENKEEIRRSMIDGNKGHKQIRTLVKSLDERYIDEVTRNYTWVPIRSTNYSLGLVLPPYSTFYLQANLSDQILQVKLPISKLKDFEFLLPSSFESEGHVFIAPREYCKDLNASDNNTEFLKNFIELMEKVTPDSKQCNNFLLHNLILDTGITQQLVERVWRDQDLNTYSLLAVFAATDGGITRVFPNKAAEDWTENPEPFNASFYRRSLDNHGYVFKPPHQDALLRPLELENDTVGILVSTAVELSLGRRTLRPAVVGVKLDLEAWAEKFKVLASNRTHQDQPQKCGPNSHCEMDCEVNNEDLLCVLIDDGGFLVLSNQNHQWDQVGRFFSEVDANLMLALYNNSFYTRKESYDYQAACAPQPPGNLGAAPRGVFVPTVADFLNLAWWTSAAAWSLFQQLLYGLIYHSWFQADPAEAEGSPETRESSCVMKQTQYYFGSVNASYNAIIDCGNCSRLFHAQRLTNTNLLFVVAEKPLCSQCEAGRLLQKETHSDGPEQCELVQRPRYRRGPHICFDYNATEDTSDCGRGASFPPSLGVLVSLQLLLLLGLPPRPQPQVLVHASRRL
The data set can be described thus: [3H]Gabapentin A2DR2 binding assay (filter, Biological Method 4). The following applies: displacement of [3H]-gabapentin.
Text: as §1, §2, §3

In data set [3] the test system is MIA Rat (monosodium iodoacetate-induced osteoarthritis, right knee joint). The data set can be described thus: Monosodium iodoacetate-induced osteoarthritis in rat model of joint cartilage damage (MIA Rat). The format is in vivo. The following applies: 2-week MIA study, Day 14, rat; for % I @ 10 mg/kg/day (%) (± SEM): inhibition of loss of hind limb joint function in MIA at Day 14: 10 mg/kg/day via osmotic pump. The source says:
One end result of the induction of osteoarthritis in this model, as determined by histologic analysis, is the development of an osteoarthritic condition within the affected joint, as characterized by the loss of Toluidine blue staining and formation of osteophytes. Associated with the histologic changes is a concentration-dependent degradation of joint cartilage, as evidenced by affects on hind-paw weight distribution of the limb containing the affected joint, the presence of increased amounts of proteoglycan or hydroxyproline in the joint upon biochemical analysis, or histopathological analysis of the osteoarthritic lesions.
The invention compounds typically are not effective for relieving joint pain when administered in an acute model, such as the instant MIA Rat model, which has a duration of just 14 or 28 days.
Generally, In the MIA Rat model on Day 0, the hind-paw weight differential between the right arthritic joint and the left healthy joint of male Wistar rats (150 g) are determined with an incapacitance tester, model 2KG (Linton Instrumentation, Norfolk, United Kingdom). The incapacitance tester has a chamber on top with an outwardly sloping front wall that supports a rat's front limbs, and two weight sensing pads, one for each hind paw, that facilitates this determination. Then the rats are anesthetized with isofluorine, and the right, hind leg knee joint is injected with 1.0 mg of mono-iodoacetate (“MIA”) through the infrapatellar ligament. Injection of MIA into the joint results in the inhibition of glycolysis and eventual death of surrounding chondrocytes. The rats are further administered either an invention compound or vehicle (in the instant case, water) daily for 14 days or 28 days.
The invention compound is typically administered at a dose of 30 mg of per kilogram of rat per day (30 mg/kg/day), but may be administered at other doses such as, for example, 10 mg/kg/day, 60 mg/kg/day, 90-mg/kg/day, or 100 mg/kg/day according to the requirements of the invention compound being studied. It is well within the level of ordinary skill in the pharmaceutical arts to determine a proper dosage of an invention compound in this model.
Administration of an invention compound in this model is optionally by oral administration or by intravenous administration via an osmotic pump. After 7 and 14 days for a two week study, or 7, 14, and 28 days for a four week study, the hind-paw weight distribution is again determined. Typically, the animals administered vehicle alone place greater weight on their unaffected left hind paw than on their right hind paw, while animals administered an invention compound show a more normal (i.e., more like a healthy animal) weight distribution between their hind paws. This change in weight distribution was proportional to the degree of joint cartilage damage. Percent inhibition of a change in hind paw joint function is calculated as the percent change in hind-paw weight distribution for treated animals versus control animals. For example, for a two week study, [formula] wherein: ΔWC is the hind-paw weight differential between the healthy left limb and the arthritic limb of the control animal administered vehicle alone, as measured on Day 14; and • ΔWG is the hind-paw weight differential between the healthy left limb and the arthritic limb of the animal administered an invention compound as measured on Day 14.
In order to measure biochemical or histopathological end points in the MIA Rat model, some of the animals in the above study may be sacrificed, and the amounts of free proteoglycan in both the osteoarthritic right knee joint and the contralateral left knee joint may be determined by biochemical analysis. The amount of free proteoglycan in the contralateral left knee joint provides a baseline value for the amount of free proteoglycan in a healthy joint. […]

Data set [4] has as its target pig alpha-2-delta receptor 1 (A2DR1) (Sus scrofa, UniProt A0A287BIN3). Nature of the data set: [3H]Gabapentin scintillant proximity A2DR1 binding assay (A2DR1 SPA, Biological Method 5). The following applies: displacement of [3H]-gabapentin. Here is the method:
(§4) Recombinant HEK 293 cells expressing pig A2DR1 and A2DR2 subunits were grown under normal cell culture conditions (RPMI-1640 media with 10% FBS, 200 μg G418, and 1% penicillin/streptomycin 1t 37° C. with 5% CO2) until reaching confluency in T-75 flasks, at which time they were harvested. The harvested cells were suspended in ice-cold 5 mM Tris/5 mM ethylenediaminetetraacetic acid (“EDTA”) buffer, pH 7.4 (“TE buffer”) containing phenylmethylsulfonyl fluoride (“PMSF”) (0.1 mM) and Roche Complete Protease Inhibitor Cocktail, and allowed to sit on ice for 30 minutes. The cells were broken by sonication using 20 bursts, 40-50 cycles, and then centrifuged at 3000×g for 10 minutes. The resulting supernatant was transferred to a new tube and centrifuged at 50,000×g for 30 minutes. The resulting pellet was resuspended in 10 mM HEPES buffer, pH 7.4, homogenized, and stored at—80° C. The A2DR1 or A2DR2 membrane protein concentration was determined by the Pierce BCA method using bovine serum albumin (“BSA”) as the standard.
(§5) The [^3H]gabapentin SPA binding assay was performed in Costar 3632 96-well, clear bottom assay plates using Wheatgerm agglutinin beads (Amersham Pharmacia Biotech). Pig A2DR1 or A2DR2 membranes (10-20 μg protein per well) prepared above in Step (1) and SPA beads (0.5 mg per well) were mixed with 30 nM [^3H]gabapentin (52 Ci/mmol; Amersham Pharmacia Biotech) in 10 mM HEPES/10 mM MgSO4 assay buffer, pH 7.4 using KOH. The final well volume was 200 μL and non-specific binding was determined in the presence of 10 μM unlabeled pregabalin. The final mixture containing A2DR1 or A2DR2 membrane protein incubated with SPA beads, test compounds, and [^3H]gabapentin was incubated at room temperature for 15-24 hours, and the plates were then counted on a Wallace Trilux 1450 Microbeta scintillation counter. Step (3): Determination of IC50 values
(§6) Curve fitting and IC50 values were calculated using a four-parameter, non-linear regression equation from GraphPad Prism 3.0 software, while Ki values were determined using the equation of Chang and Prussoff.

In data set [5] the target is pig alpha-2-delta receptor 2 (A2DR2) (UniProt A0A8W4FF87). The data set can be described thus: [3H]Gabapentin scintillant proximity A2DR2 binding assay (A2DR2 SPA, Biological Method 5). Particulars: displacement of [3H]-gabapentin. How it is done:
as §4, §5, §6

pig alpha-2-delta receptor 1 (A2DR1), sequence (A0A287BIN3 1-1109): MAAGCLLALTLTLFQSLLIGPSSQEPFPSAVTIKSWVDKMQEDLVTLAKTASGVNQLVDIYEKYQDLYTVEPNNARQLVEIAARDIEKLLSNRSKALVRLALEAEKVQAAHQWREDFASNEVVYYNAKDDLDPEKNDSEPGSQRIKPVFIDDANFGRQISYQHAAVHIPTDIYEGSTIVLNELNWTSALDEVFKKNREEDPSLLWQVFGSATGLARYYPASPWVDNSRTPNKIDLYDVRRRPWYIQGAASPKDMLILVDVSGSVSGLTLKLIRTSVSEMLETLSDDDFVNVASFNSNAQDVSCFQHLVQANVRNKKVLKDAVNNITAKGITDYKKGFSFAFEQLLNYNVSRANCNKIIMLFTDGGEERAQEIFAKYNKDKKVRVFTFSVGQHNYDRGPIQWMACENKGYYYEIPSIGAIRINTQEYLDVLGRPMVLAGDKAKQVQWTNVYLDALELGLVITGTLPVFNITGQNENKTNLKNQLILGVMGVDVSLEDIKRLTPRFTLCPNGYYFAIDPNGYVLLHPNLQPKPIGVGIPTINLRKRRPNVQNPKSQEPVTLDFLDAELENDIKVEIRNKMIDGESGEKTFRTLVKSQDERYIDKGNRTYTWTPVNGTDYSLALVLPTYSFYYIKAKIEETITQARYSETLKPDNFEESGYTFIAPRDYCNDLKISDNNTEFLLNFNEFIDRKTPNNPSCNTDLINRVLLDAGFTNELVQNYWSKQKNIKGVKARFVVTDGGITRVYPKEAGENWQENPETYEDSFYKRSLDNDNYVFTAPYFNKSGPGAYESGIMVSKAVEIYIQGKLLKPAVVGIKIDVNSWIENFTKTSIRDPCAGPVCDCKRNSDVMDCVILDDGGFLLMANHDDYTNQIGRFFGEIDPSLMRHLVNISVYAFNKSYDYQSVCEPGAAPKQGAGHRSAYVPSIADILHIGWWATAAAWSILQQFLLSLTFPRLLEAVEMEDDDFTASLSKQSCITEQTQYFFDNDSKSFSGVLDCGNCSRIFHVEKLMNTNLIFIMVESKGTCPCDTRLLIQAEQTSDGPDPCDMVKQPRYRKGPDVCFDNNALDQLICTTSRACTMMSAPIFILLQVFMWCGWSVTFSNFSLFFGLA

As a reminder, the melting point is the temperature, or range, at which the solid turns liquid. For orientation: IC50 means the midpoint of a concentration-inhibition curve. `O=C(NS(=O)(=O)C(F)(F)F)[C@@H]1C[C@@H]2CCCC[C@@H]2N1` [Example E3] registered a melting point of 247 to 249 °C. This compound also had an IC50 in data set [1] of at least 10 µM. Moreover, the IC50 in data set [2] is at least 10 µM.
Consider `CN(C)CCOC(=O)[C@@H]1C[C@@H]2CCCC[C@@H]2N1.Cl`, for which the melting point fell in the range of 189 to 195 °C.
In the case of `O=C(NC1CCC2NC(C(=O)O)CC2C1)C1CCCCC1` (stereo not drawn) [Example O6], the IC50 in data set [1] and in data set [2] was at least 10 µM each time. For the same compound, in data set [3], the “% I @ 10 mg/kg/day (%) (± SEM): inhibition of loss of hind limb joint function in MIA at Day 14” value was −48 ± 10%.
Take `CC1(C(=O)O)C[C@@H]2CCCC[C@@H]2N1` (mixture of isomers) [Example B2]: the IC50 in data set [4] is at least 10 µM; in data set [1] it was 2.83 µM; in data set [2] it was at least 10 µM; in data set [5], at least 10 µM. The “% I @ 10 mg/kg/day (%) (± SEM): inhibition of loss of hind limb joint function in MIA at Day 14” value in data set [3] is given as 58 ± 12%.
For the compound `CN1[C@H](C(=O)NS(=O)(=O)C(F)(F)F)C[C@@H]2CCCC[C@@H]21` [Example E4], the melting point was 189 to 192 °C. Moreover, the IC50 in data set [1] is at least 10 µM. The same compound registered an IC50 in data set [2] of at least 10 µM.
Consider `NC1CCC2NC(C(=O)O)CC2C1` (stereo not drawn) [Example O7], for which the IC50 in data set [1] and in data set [2] was at least 10 µM throughout. Also, the “% I @ 10 mg/kg/day (%) (± SEM): inhibition of loss of hind limb joint function in MIA at Day 14” value in data set [3] is given as −63 ± 14%.
On to `C1CC[C@@H]2N[C@H](c3nnn[nH]3)C[C@@H]2C1`, for which the melting point was 240 °C (dec.).
For the compound `CN1C(C(=O)O)C[C@@H]2CCCC[C@@H]21` (mixture of isomers) [Example A4], the IC50 in data set [4], in data set [2] and in data set [5] was at least 10 µM in each case. Besides, the “% I @ 10 mg/kg/day (%) (± SEM): inhibition of loss of hind limb joint function in MIA at Day 14” value in data set [3] amounted to 67 ± 8%.
The compound `CCC1CC[C@@H]2C[C@@H](C(=O)O)N[C@@H]2C1.Cl` (stereo partly drawn) came in with a melting point of 188 to 190 °C.
Still for that read-out and setting: the value for `O=C(O)[C@@H]1C[C@H]2CCC(c3ccccc3)C[C@H]2N1` (stereo partly drawn) was 200 to 205 °C.
Compound `O=c1[nH]c([C@@H]2C[C@@H]3CCCC[C@@H]3N2)no1` [Example F1] came in with an IC50 in data set [2] of at least 10 µM. In data set [3] (30 mg/kg BID oral), the “% I @ 30 mg/kg BID (%) (± SEM): inhibition of loss of hind limb joint function in MIA at Day 14” value is on record as “(i) 82^2; %”.
In the case of `CC1CCC2NC(C(=O)O)CC2C1` (stereo not drawn) [Example O5], the IC50 in data set [4] is 2.8 µM; in data set [1], 0.11 µM; in data set [2] it was 0.29 µM; in data set [5], at least 10 µM. In data set [3], the “% I @ 10 mg/kg/day (%) (± SEM): inhibition of loss of hind limb joint function in MIA at Day 14” value is given as −32 ± 20%.
Turning to `COC1CCC2CC(C(=O)O)NC2C1` (stereo not drawn) [Example O3], the concentration for half-maximal inhibition (IC50) in data set [2] stood at 2.23 µM.
